Measured values: PMC6930633, “Synthesis and Biological Evaluation of BODIPY-PF-543” (Molecules, 2019)

Target: T1, Sphingosine kinase 1 (SK1) (Homo sapiens, UniProt Q9NYA1)
T1 construct: gene SPHK1
Experiment: recombinant SK1 luminescent ATP-detection kinase activity assay (Echelon kit)
Assay type: biochemical

T1 sequence (Q9NYA1 whole entry): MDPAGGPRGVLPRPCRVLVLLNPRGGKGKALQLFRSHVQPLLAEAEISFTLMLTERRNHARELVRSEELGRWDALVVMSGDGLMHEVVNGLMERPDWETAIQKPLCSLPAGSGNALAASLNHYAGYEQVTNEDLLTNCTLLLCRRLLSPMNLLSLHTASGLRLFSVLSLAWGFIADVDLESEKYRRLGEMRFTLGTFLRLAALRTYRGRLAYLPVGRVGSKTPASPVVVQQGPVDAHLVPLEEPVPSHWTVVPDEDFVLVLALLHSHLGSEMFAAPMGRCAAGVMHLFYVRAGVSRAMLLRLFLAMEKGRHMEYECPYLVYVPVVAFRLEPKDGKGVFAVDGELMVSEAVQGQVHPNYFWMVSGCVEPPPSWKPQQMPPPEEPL

IC50: 19.9 nM
SMILES: CC1=CC(C)=[N+]2C1=C(c1ccc(-c3cn(Cc4cc(C)cc(OCc5ccc(CN6CCC[C@@H]6CO)cc5)c4)nn3)cc1)c1c(C)cc(C)n1[B-]2(F)F [compound 2, (R)-(1-(4-((3-((4-(4-(5,5-Difluoro-1,3,7,9-tetramethyl-5H-4l4,5l4-dipyrrolo[1,2-c:2’,1’-f][1,3,2]diazaborinin-10-yl)phenyl)-1H-1,2,3-triazol-1-yl)methyl)-5-methylphenoxy)methyl)benzyl)pyrrolidin-2-yl)methanol]
